Laboratory results reported in patent US11331299B2, “Medicinal use of serrulatane diterpenes” (The University of Sydney, priority 2016, dated 2022).
pEC50, pIC50: −log10 of the molar value. Where two headings read alike, the source gives them in different places.

What was measured:
[1] = target: PKBbeta/AKT2(h) (substrate histone H3 full length) (Homo sapiens, UniProt P31751); assay: Epigenetic enzyme assay, Kinases; format: biochemical; settings: read-out: % Inhibition of Control Values
[2] = target: T1, CBX6 (h) chromodomain (Homo sapiens, UniProt O95503); assay: Epigenetic binding assay, Chromodomain; settings: read-out: % Inhibition of Control Specific Binding
T1 construct: Recognition and specificity determinants of the human cbx chromodomains; Eurofins CEREP (France), contract laboratory
T1 sequence (O95503 11-69 limits assumed): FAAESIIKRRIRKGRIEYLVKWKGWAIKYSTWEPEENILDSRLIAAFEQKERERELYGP

[3] = system: J-RT3-T3-5 leukemia; assay: OncoPanel cell proliferation assay (10-day); format: cell-based, human; settings: for GI50 / pEC50 / pIC50: Homo sapiens; for pEC50: read-out: Cell Count EC50; for pIC50: read-out: Cell Count IC50
[4] = target: T2, JMJD1A (h) (Homo sapiens, UniProt Q9Y4C1); assay: Epigenetic enzyme assay, Demethylases (KDMs); format: biochemical; settings: for inhibition at 10 µM: read-out: % Inhibition of Control Values
T2 sequence (Q9Y4C1 1-1321): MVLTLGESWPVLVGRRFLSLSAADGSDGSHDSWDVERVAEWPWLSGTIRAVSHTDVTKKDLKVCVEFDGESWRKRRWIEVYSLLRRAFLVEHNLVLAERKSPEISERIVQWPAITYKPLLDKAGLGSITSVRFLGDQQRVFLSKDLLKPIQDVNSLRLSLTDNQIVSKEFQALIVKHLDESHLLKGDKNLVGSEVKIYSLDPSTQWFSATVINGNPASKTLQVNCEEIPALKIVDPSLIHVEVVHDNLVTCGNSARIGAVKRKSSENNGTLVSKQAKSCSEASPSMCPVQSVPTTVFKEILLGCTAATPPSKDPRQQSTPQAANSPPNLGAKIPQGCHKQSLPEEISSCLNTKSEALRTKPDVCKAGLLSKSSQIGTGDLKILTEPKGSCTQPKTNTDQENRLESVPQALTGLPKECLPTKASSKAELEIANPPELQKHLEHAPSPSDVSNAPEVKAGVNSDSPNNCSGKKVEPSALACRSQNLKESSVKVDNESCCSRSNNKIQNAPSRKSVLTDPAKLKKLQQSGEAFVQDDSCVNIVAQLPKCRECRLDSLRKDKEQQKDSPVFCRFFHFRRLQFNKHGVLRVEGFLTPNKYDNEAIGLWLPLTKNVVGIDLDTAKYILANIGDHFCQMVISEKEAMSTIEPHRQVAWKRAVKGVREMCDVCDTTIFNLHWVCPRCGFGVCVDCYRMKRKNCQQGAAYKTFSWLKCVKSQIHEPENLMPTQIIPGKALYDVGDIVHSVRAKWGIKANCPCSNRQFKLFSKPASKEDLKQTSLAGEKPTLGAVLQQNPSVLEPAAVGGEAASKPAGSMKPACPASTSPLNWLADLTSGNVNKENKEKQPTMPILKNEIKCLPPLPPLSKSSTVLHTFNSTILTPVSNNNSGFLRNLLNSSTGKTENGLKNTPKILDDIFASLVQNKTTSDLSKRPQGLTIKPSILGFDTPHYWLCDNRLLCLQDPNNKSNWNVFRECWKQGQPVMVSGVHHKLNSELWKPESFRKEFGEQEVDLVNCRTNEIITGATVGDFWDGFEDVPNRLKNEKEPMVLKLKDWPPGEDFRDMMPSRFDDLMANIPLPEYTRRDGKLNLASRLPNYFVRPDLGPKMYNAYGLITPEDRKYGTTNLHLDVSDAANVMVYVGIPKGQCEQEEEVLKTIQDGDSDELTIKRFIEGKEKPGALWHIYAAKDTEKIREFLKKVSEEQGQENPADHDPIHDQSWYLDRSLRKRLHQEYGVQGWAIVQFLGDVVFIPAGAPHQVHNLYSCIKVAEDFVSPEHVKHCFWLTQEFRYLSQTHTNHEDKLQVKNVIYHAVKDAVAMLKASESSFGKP

[5] = target: T3, JMJD2A (h) (Homo sapiens, UniProt O75164); assay: Epigenetic enzyme assay, Demethylases (KDMs); format: biochemical; settings: read-out: % Inhibition of Control Values
T3 sequence (O75164 1-1064): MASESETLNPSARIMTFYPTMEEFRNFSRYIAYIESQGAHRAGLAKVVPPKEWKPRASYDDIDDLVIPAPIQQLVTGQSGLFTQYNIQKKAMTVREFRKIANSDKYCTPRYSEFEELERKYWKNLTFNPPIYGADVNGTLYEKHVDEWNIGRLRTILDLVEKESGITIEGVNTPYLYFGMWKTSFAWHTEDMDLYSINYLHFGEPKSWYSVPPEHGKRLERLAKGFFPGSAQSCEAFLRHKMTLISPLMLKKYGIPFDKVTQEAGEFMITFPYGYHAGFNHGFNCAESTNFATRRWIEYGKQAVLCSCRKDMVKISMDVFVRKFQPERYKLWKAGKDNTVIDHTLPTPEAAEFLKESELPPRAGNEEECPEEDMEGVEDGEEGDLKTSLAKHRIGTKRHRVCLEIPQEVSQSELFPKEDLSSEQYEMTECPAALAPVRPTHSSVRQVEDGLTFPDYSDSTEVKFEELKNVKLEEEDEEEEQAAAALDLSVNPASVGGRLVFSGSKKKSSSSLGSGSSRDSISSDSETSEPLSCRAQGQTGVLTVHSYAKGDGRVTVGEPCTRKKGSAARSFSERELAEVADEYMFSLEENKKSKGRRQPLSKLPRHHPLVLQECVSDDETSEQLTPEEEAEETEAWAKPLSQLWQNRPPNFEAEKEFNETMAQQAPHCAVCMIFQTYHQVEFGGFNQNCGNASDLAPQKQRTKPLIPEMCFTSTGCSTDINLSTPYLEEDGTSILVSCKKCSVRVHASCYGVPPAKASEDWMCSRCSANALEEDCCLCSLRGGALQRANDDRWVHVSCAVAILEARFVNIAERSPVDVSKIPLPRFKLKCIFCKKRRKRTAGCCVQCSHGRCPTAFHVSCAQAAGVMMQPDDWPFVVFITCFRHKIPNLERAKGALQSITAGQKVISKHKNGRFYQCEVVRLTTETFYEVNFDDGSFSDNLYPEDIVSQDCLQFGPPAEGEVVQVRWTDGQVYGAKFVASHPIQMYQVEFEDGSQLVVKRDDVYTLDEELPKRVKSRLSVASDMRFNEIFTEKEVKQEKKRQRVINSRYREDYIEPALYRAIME

[6] = system: MLL4(h) complex; assay: Epigenetic enzyme assay, Methyltransferases (MTs); format: biochemical, human; settings: for % Inhibition of Control Values: 10 μM
[7] = system: H3K27 ac; assay: Cell-based detection methyl modifications; settings: read-out: % Inhibition of Control Values
[8] = target: MYST4(h) (Homo sapiens, UniProt Q8WYB5); assay: Epigenetic enzyme assay, Histone acetyltransferases (HATs); format: biochemical; settings: for inhibition at 10 µM: read-out: % Inhibition of Control Values
[9] = target: USP 14 (h) (Homo sapiens, UniProt P54578); assay: Epigenetic enzyme assay, Ubiquitin modifying enzymes; format: biochemical; settings: 10 μM; read-out: % Inhibition of Control Values
[10] = J-RT3-T3-5, Leukemia, read-out: Cell Count GI50
[11] = Table 11, inhibition/concentration-response curve

Chain of PKBbeta/AKT2(h) (substrate histone H3 full length) (P31751 whole entry): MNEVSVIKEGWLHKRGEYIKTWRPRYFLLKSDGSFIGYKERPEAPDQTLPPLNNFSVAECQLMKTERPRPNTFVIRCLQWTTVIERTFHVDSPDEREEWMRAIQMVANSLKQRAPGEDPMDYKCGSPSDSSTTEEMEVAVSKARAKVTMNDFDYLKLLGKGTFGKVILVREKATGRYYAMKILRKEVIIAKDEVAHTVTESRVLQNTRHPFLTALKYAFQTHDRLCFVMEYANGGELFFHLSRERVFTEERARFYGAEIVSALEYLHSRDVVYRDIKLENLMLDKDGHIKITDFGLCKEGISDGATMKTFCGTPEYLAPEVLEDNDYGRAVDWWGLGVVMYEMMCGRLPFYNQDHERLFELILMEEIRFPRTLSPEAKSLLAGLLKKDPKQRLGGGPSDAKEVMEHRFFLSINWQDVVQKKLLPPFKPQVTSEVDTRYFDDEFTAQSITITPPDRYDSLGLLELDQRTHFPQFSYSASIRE
Chain of MYST4(h) (Q8WYB5 whole entry): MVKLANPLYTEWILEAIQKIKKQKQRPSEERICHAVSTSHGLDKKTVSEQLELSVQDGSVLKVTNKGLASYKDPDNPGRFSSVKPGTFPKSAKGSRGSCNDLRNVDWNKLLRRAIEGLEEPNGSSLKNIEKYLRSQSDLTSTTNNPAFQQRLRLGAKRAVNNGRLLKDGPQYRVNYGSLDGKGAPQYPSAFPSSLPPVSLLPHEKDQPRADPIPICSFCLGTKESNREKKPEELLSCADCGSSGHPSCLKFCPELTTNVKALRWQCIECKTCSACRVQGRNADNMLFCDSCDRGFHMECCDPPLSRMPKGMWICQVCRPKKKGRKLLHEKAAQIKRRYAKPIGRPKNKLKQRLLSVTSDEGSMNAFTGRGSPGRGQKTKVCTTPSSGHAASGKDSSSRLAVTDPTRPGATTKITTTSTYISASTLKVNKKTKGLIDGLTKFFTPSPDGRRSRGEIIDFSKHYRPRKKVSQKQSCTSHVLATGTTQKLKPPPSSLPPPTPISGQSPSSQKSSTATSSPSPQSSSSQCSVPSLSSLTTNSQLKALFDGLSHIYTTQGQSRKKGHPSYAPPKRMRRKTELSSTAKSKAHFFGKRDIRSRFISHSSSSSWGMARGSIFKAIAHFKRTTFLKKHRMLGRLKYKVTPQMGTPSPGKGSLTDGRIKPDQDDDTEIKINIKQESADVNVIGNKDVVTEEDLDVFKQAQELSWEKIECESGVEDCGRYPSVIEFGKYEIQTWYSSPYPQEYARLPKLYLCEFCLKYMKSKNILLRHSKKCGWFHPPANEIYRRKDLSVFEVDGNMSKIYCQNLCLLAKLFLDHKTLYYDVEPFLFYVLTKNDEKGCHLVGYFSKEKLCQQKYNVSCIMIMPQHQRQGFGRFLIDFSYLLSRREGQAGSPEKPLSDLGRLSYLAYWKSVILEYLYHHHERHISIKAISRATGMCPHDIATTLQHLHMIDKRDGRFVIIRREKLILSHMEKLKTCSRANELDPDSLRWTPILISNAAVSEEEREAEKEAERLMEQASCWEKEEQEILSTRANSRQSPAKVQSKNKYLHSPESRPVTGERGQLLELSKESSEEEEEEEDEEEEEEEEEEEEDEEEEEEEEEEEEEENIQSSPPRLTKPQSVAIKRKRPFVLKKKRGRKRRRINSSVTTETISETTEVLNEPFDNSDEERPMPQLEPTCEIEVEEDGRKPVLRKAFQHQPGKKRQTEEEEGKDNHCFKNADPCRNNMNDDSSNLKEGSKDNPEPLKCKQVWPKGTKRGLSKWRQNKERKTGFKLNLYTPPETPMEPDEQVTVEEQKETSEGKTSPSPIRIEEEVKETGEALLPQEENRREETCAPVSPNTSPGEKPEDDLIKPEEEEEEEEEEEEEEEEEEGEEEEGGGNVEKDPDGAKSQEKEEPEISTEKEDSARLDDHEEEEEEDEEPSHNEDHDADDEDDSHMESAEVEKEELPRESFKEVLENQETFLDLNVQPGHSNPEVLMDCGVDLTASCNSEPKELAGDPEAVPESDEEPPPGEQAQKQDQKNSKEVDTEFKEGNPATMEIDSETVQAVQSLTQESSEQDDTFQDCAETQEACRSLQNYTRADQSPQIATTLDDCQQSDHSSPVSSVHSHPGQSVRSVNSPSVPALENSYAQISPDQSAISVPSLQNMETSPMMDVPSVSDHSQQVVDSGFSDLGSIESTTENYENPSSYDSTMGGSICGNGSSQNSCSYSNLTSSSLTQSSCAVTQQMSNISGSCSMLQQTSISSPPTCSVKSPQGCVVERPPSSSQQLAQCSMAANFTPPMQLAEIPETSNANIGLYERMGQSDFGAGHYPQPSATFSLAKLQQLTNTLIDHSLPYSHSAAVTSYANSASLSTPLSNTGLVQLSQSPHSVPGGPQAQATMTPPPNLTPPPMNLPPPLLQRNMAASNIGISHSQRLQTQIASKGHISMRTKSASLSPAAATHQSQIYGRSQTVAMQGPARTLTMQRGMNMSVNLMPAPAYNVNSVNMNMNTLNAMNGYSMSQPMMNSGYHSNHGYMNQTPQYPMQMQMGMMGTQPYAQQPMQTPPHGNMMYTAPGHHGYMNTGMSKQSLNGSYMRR
Chain of USP 14 (h) (P54578 whole entry): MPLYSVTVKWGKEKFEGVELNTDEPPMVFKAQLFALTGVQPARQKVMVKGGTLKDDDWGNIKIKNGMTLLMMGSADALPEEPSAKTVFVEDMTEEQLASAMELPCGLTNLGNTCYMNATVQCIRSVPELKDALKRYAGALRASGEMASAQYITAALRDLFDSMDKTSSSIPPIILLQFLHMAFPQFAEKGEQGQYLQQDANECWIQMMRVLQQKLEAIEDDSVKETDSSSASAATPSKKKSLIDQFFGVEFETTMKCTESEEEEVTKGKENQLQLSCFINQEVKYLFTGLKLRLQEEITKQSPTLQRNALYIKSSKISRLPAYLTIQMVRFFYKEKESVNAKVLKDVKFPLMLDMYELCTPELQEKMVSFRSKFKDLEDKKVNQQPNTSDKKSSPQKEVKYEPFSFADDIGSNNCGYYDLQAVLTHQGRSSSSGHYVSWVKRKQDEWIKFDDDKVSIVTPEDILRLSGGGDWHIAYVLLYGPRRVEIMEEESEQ

SMILES	inhibition at 10 µM [1]	inhibition at 10 µM [2]	GI50 ([3]; J-RT3-T3-5, read-out: GI50)	pEC50 ([3]; J-RT3-T3-5, Leukemia)	GI50 [3, 10]	pIC50 ([3]; J-RT3-T3-5, Leukemia)	% Inhibition of Control Values ([4]; 10 μM)	inhibition at 10 µM ([4]; 10 μM)	pIC50 [4, 11]	inhibition at 10 µM [5]	% Inhibition of Control Values [6]	inhibition at 10 µM [7]	inhibition at 10 µM [8]	inhibition at 10 µM [9]	times less activity than Compound 1 ([3]; ratio of GI50 values)	pIC50 [8, 11]	pIC50 ([6]; read-out: Reference IC50)
CC(C)=CCC[C@H](CO)[C@@H]1CC[C@@H](C)c2c1cc(C)c(O)c2O [Compound 1, 7,8,18-trihydroxyserrulat-14-ene]	13%	-1%	10.1 nM	8.00	10 nM	8.00	significant inhibitory activity	80%	5.35	29%	−16%	-16%	25%	1%	–	–	–
CC(C)=CCC[C@@H]1C(O)Oc2c(C)cc(O)c3c2[C@H]1CC[C@H]3C (stereo partly shown) [Compound 2, 5,18-epoxyserrulat-14-en-8,18-diol]	11%	27%	–	5.68	2060 nM	5.68	–	37%	–	-10%	−18%	-12%	39%	0%	–	–	–
CC(C)=CCC[C@@H]1COc2c(C)cc(O)c3c2[C@H]1CC[C@H]3C [Compound 3, 5,18-epoxy-8-hydroxyserrulat-14-ene]	12%	58%	–	–	–	–	–	-1%	–	12%	−4%	-11%	71%	-24%	–	–	–
CC(C)=CCC[C@H](C)[C@@H]1CC[C@@H](C)c2c1cc(C)c(O)c2O [Compound 4, 7,8-dihydroxyserrulat-14-ene]	–	–	2710 nM	5.57	2710 nM	5.57	–	–	–	–	–	–	–	–	approximately 270 times	5.38	–
Nc1ncnc2c1ncn2[C@@H]1O[C@H](CSCC[C@H](N)C(=O)O)[C@@H](O)[C@H]1O [SAH]	–	–	–	–	–	–	–	–	–	–	–	–	–	–	–	–	6.26
